Data taken from patent publication US20250049796A1, “USE OF 4-THIAZOL-N-(PYRIDIN-2-YL)PYRIMIDIN-2-AMINE DERIVATIVES IN COMBINATION THERAPIES FOR CANCER” (Aucentra Therapeutics Pty Ltd, priority 2022, published 2025).

How the values were obtained:
[1] = tested on: CT26.WT colorectal cancer cells; assay: In vivo anti-tumour activity in CT26.WT syngeneic mouse model (second experiment)
Procedure: (§1) Murine triple-negative breast cancer EMT6 tumour cells (ATCC® CRL-2755™) and colorectal cancer CT26.WT cells (ATCC® CRL-2638™) were cultured and expanded in RPMI-1640 medium (Roswell Park Memorial Institute Medium-1640) with L-glutamine and sodium bicarbonate (Sigma-Aldrich, Macquarie Park, NSW, Australia) supplemented with 10% heat-inactivated foetal bovine serum (FBS). Cells were cultured in an incubator at 5% CO2 37° C.
(§2) In another experiment, mice bearing CT26.WT colorectal cancer cells were treated with vehicle (distilled water QD PO), compound 1 (100 mg/kg QD PO), an anti-PD-1 antibody ([…] ip), or compound 1 plus the anti-PD-1 antibody.

PDL-1 = assay: PD-L1 level in samples of EMT6-bearing treated mice; type: in vivo, mouse (female BALB/c); settings: spleen samples isolated two hours post-final dose, 150 mg/kg QD PO
Procedure: (§3) EMT6 cells were harvested and re-suspended in a 1:1 mixture of Matrigel™ (#354234; Corning Life Sciences, Corning, NY, United States of America) and serum-free RPMI-1640 medium, and thereafter injected sub-cutaneously (sc) (7×10^5 cells in a volume of […]) into the right flank of each female BALB/c mouse. After the tumour volume reached ˜100 mm^3, the mice were randomised into two groups (n=4/group) and given vehicle (1% CMC in water), or compound 1 (150 mg/kg) once daily by oral administration (QD PO). […] The level of phosphorylated RB (p-S807/11) was also found to be reduced in the EMT6 tumours collected two hours post-final dose, confirming CDK4/6 inhibition (FIG. 1B). A reduction in the […], PDL-1, in the spleen samples of the mice isolated two hours post-final dose was also observed, indicating the immunotherapeutic potential of compound 1 (FIG. 1C).

[2] = tested on: phosphorylated RB (p-S807/11); assay: Phosphorylated RB level in EMT6 tumours of treated mice; type: in vivo, mouse (female BALB/c); settings: EMT6 tumours collected two hours post-final dose, 150 mg/kg QD PO
Procedure: as §3

[3] = tested on: EMT6 triple-negative breast cancer cells; assay: In vivo anti-tumour activity in mice with a breast cancer cell syngeneic allograft; settings: 150 mg/kg QD PO
Procedure: as §1, §3

[4] = tested on: CT26.WT colorectal cancer cells; assay: In vivo anti-tumour activity in mice with a colorectal cancer cell syngeneic allograft (first experiment); parameters: species or system mouse (female BALB/c)
Procedure: as §1
Similarly, mice bearing CT26.WT colorectal cancer cells were matched and randomised to vehicle or treatment groups (n=8/group). Female BALB/c mice with mean tumour volume ˜100 mm^3 were given vehicle (distilled water QD PO), compound 1 (100 mg/kg QD PO), an anti-PD1 antibody (RMP1-14-derived mouse monoclonal antibody; Assay Matrix Pty Ltd, Ivanhoe North, VIC, Australia), 200 μg/mouse/week by intraperitoneal (ip) administration) or compound 1 plus anti-PD-1 antibody.

[5] = tested on: CD3+, CD4+, CDK8+ and CD45+ T-cells; assay: Immune markers (T cell population in spleen) in CT26.WT-bearing treated mice; type: in vivo, mouse
Procedure: as §2

Row | Structure (SMILES) | TGI, used alone ([1]; 100 mg/kg QD PO alone, day 15 of dosing) [%] | TGI, combination with anti-PD-1 antibody ([1]; 100 mg/kg QD PO plus anti-PD-1 antibody (150 g/mouse/week ip), day 15 of dosing) [%] | anti-tumour efficacy of combination compared with anti-PD-1 alone ([1]; compound 1 plus anti-PD-1 antibody, p=0.03) | level of immune checkpoint protein ligand PDL-1 (PDL-1) | level of phosphorylated RB (p-S807/11) [2] | weight loss or overt toxicity ([3]; EMT6-bearing mice, throughout the study) | tumour growth inhibition (% TGI), used alone ([4]; 100 mg/kg QD PO alone, day 21 of dosing) [%] | tumour growth inhibition (% TGI), combination with anti-PD-1 antibody ([4]; 100 mg/kg QD PO plus anti-PD-1 antibody 200 μg/mouse/week ip, day 21 of dosing) [%] | survival of the mice, combination with anti-PD-1 antibody ([4]; 100 mg/kg QD PO plus anti-PD-1 antibody, p<0.001) | survival of the mice, single agent ([4]; 100 mg/kg QD PO, p<0.001) | level of immune markers CD3+, CD4+, CDK8+ and CD45+ T-cells [5] | tumour growth inhibition (% TGI) ([3]; EMT6 allograft, final day of tumour measurement) [%]
1 | CCN1CCN(Cc2ccc(Nc3ncc(F)c(-c4sc(NC5CCCC5)nc4C)n3)nc2)CC1 [Compound 1, N-cyclopentyl-5-(2-((5-((4-ethylpiperazin-1-yl)methyl)pyridin-2-yl)amino)-5-fluoropyrimidin-4-yl)-4-methylthiazol-2-amine] | 77 | 91 | more effective | reduction | reduced | No significant weight loss or any overt toxicity | 75 | 91 | significantly prolong | significantly prolong | increased level | –
2 | CNc1nc(C)c(-c2nc(Nc3ccc(CN4CCN(C(C)C)CC4)cn3)ncc2F)s1 [Compound 12, 5-(5-fluoro-2-((5-((4-isopropylpiperazin-1-yl)methyl)pyridin-2-yl)amino)pyrimidin-4-yl)-N,4-dimethylthiazol-2-amine] | – | – | – | – | – | – | – | – | – | – | – | 47
